One series addresses TAP01 (MoG1K) antibody. Briefly: Thioacetal bridged cyclic peptide binding ELISA with TAP01 antibody. Also noted: species or system mouse. The procedure: (§1) • 1. […] Incubate at 4° C. overnight • 3. Wash the plate (NUNC 384 program) • 4. […] Incubate at RT for 1 hour • 6. Wash the plate (NUNC 384 program) • 7. […] Incubate at 4° C. overnight • 9. Wash the plate (NUNC 384 program) • 10. […] Transfer 30 μL/well onto the assay plate • 12. Incubate at 37° C. for 1 hour • 13. Wash the plate (NUNC 384 program) • 14. […] Incubate at 37° C. for 1 hour 16. Wash the plate (NUNC 384 program) 17. […] Incubate at RT for 10 min in the dark 19.
(§2) Binding to comparators antibodies was also assessed.
(§3) Binding to comparator antibodies was also assessed (FIG. 26).
(In general: In an ELISA, binding on a coated surface is turned into a signal by an enzyme label.)

For a further series, the system named is Bapineuzumab. Briefly: Cyclic peptide binding ELISA with comparator antibody Bapineuzumab. The method, then: as §1, §2, §3
The subject of the next series is BAN2401. Briefly: Cyclic peptide binding ELISA with comparator antibody BAN2401. The following applies: FIGS. 7, 22. The method, then: as §1
(§4) Binding of the TAP01 antibody has been assessed to these thioacetal bridged cyclic peptide variants by ELISA (FIGS. 20-22 and Table 5). Binding to comparators antibodies was also assessed.

The next series has as its system Solanezumab. Briefly: Cyclic peptide binding ELISA with comparator antibody Solanezumab. The settings on record: FIGS. 7, 22. The procedure:
as §1, §4

The subject of series [1] is disulphide bridged 1-14 cyclic peptide 3, 12. The following applies: mouse 5 (best immune response), FIG. 8. The procedure: • 1. […] Incubate at 4° C. overnight • 3. Wash the plate (NUNC 384 program) • 4. […] Incubate at RT for 1 hour • 6. Wash the plate (NUNC 384 program) • 7. […] Incubate at 4° C. overnight • 9. Wash the plate (NUNC 384 program) • 10.
The next series relates to 4-42 amyloid peptide. The settings on record: sera after immunisation with disulphide bridged peptide, ELISA. The procedure: • 1. […] Wash the plate (NUNC 384 program) • 4. […] Wash the plate (NUNC 384 program) • 7. […] Incubate at 37° C. for 1 hour • 13. Wash the plate (NUNC 384 program) • 14.
The test system of another series is pE3-42 amyloid peptide. The series can be described thus: Immunisation with disulphide bridged peptide, sera pE3-42 peptide binding ELISA. Format: in vivo, mice and rabbits. The settings on record: sera after immunisation with disulphide bridged peptide. The method, then:
• 1. Coat 384-well plate with 30 μL/well of 100 ng/ml PSL amyloid 1-42 peptide (Human-Peptide Specialty Laboratories-CEM1904161) diluted in carb/bicarb buffer • 2. Incubate at 37° C. for 1 hour • 3. Wash the plate (NUNC 384 program) • 4. […] Incubate at 4° C. overnight • 6. Wash the plate (NUNC 384 program) • 7. […] Transfer 30 μL/well onto the assay plate • 10. Incubate at 37° C. for 1 hour • 11. Wash the plate (NUNC 384 program) • 12. […] Incubate at 37° C. for 1 hour • 14. Wash the plate (NUNC 384 program) • 15. […] Incubate at RT for 10 min in the dark • 17. […] Coat 384-well plate with 30 μL/well of 100 ng/ml PSL amyloid pE3-42 peptide (Human-Peptide Specialty Laboratories-CEM062210 Pyr) diluted in carb/bicarb buffer • 2. Incubate at 37° C. for 1 hour • 3. Wash the plate (NUNC 384 program) • 4. […] Incubate at 4° C. overnight • 6. Wash the plate (NUNC 384 program) • 7. […] Transfer 30 μL/well onto the assay plate • 10. Incubate at 37° C. for 1 hour • 11. Wash the plate (NUNC 384 program) • 12. […] Incubate at 37° C. for 1 hour • 14. Wash the plate (NUNC 384 program) • 15. […] Incubate at RT for 10 min in the dark • 17.

Another series relates to ProBioDrug 24_2_3. Briefly: Cyclic peptide binding ELISA with comparator antibody ProBioDrug 24_2_3. The settings on record: FIG. 7. The procedure:
(§5) • 1. […] Incubate at 4° C. overnight • 3. Wash the plate (NUNC 384 program) • 4. […] Incubate at RT for 1 hour • 6. Wash the plate (NUNC 384 program) • 7. […] Incubate at 4° C. overnight • 9. Wash the plate (NUNC 384 program) • 10. […] Transfer 30 μL/well onto the assay plate • 13. Incubate at 37° C. for 1 hour • 14. Wash the plate (NUNC 384 program) • 15. […] Incubate at 37° C. for 1 hour • 17. Wash the plate (NUNC 384 program) • 18.
as §1
(§6) ProBioDrug 6_1_6 (Deposit No. DSM ACC 2924) and ProBioDrug 24_2_3 (Deposit No. DSM ACC 2926) are described in […].

For series [2], the system named is biotinylated cyclised peptide. Briefly: Sera of actively immunised 5XFAD and Tg4-42 mice, binding ELISA to cyclised peptide. The following applies: FIGS. 32 and 33. Format: in vivo, mouse. The method, then:
as §1
Animals (SXFAD and Tg4-42 mice) were immunised with thioacetal bridged cyclic peptide 1-14 and sera were screened for binding to biotinylated cyclised peptide as previously described above.

A further series has as its system ProBioDrug 6_1_6. The series can be described thus: Cyclic peptide binding ELISA with comparator antibody ProBioDrug 6_1_6. The settings on record: FIG. 7. The procedure:
as §5, §1, §6

The subject of series [3] is thioacetal bridged 1-14 cyclic peptide 3,12. The series can be described thus: Immunisation with thioacetal bridged peptide, sera binding ELISA to thioacetal bridged cyclic peptide. Format: in vivo, rabbits and mice. The procedure:
as §1

A short description of series [4]: Stability comparison of both versions of the constrained cyclic peptide. Format: physicochemical. The settings on record: listed as thioacetal bridged peptide.
Another series concerns TAP01 antibody. The series can be described thus: Proline mutated peptide binding to TAP01 antibody using Biacore T200. Also noted: species or system mouse. The following applies: Biacore T200, FIG. 23. A general note: SPR reads the build-up and loss of mass on a sensor chip optically.

The values below come from patent US20230151069A1, “Cyclic Peptides” (LIFEARC, priority 2020, published 2023).

Like-named read-outs stand apart in the source and are kept apart here. *1 amine or outer side, *2 acyl side, *3 side chain or, on linkers, in order; H or OH if unused. Where a SMILES comes first, the peptide text is derived from it. Bridges are numbered along the chain shown (N, C = ends). CH2 = C([*:1])[*:2]

On to `CC(C)[C@H](NC(=O)[C@H](CCC(=O)O)NC(=O)[C@@H]1CSCSC[C@H](N)C(=O)N[C@@H](C)C(=O)N[C@@H](CCC(=O)O)C(=O)N[C@@H](Cc2ccccc2)C(=O)N[C@@H](CCCNC(=N)N)C(=O)N[C@@H](Cc2c[nH]cn2)C(=O)N[C@@H](CC(=O)O)C(=O)N[C@@H](CO)C(=O)NCC(=O)N1)C(=O)N[C@@H](Cc1c[nH]cn1)C(=O)N[C@@H](Cc1c[nH]cn1)C(=O)O` [1, 10] (H-CAEFRHDSGCEVHH-OH; linker 1-10 via CH2; N-terminus and C-terminus assumed), for which, at TAP01 (MoG1K) antibody (TAP01 (MoG1K) binding to thioacetal bridged cyclic peptide variants, Table 7, read-out: EC50), the EC50 came to 12 nM.

On to `CC(C)[C@H](NC(=O)[C@H](CCC(=O)O)NC(=O)[C@@H]1CSCSC[C@H](N)C(=O)N[C@@H](C)C(=O)N[C@@H](CCC(=O)O)C(=O)N[C@@H](Cc2ccccc2)C(=O)N[C@@H](CCCNC(=N)N)C(=O)N[C@@H](Cc2c[nH]cn2)C(=O)N[C@@H](CC(=O)O)C(=O)N[C@@H](CO)C(=O)NCC(=O)N1)C(=O)N[C@@H](Cc1c[nH]cn1)C(=O)N[C@@H](Cc1c[nH]cn1)C(=O)O` [Peptide 1, 10] (H-CAEFRHDSGCEVHH-OH; linker 1-10 via CH2; N-terminus and C-terminus assumed), for which the “binding to comparator antibody Bapineuzumab” value in the series with Bapineuzumab (FIGS. 7, 22, 26, 34) was “Binding to the comparator antibody Bapineuzumab was seen”. The EC50 on TAP01 (MoG1K) antibody (TAP01 (MoG1K), FIG. 25, unit inferred, read-out: calculated EC50 value) was 12 nM.

For `CC(C)[C@H](NC(=O)[C@H](CCC(=O)O)NC(=O)[C@@H]1CSCSC[C@H](NC(=O)[C@@H](N)CC(=O)O)C(=O)N[C@@H](CCC(=O)O)C(=O)N[C@@H](Cc2ccccc2)C(=O)N[C@@H](CCCNC(=N)N)C(=O)N[C@@H](Cc2c[nH]cn2)C(=O)N[C@@H](CC(=O)O)C(=O)N[C@@H](CO)C(=O)NCC(=O)N1)C(=O)N[C@@H](Cc1c[nH]cn1)C(=O)N[C@@H](Cc1c[nH]cn1)C(=O)O` [Peptide 2, 10] (H-DCEFRHDSGCEVHH-OH; linker 2-10 via CH2), the “binding to comparator antibody Bapineuzumab” value in the series with Bapineuzumab (FIGS. 7, 22, 26, 34) is reported as “able to bind”; in the series on Bapineuzumab (FIGS. 7, 22, 26, 34, listed as cyclic peptide 2, 10) it was “Binding to the comparator antibody Bapineuzumab was seen”. In the series on BAN2401, the “binding to comparator antibody BAN2401” value was “low affinity”. Besides, the EC50 on TAP01 (MoG1K) antibody (TAP01 (MoG1K) binding to thioacetal bridged cyclic peptide variants, Table 5, read-out: EC50) was 1.33 nM. Further, the “binding to comparator antibody Solanezumab” value with Solanezumab is “low affinity”.

“DA*CFRHDSGYE*CHH-Biotin (*S—S* bridge) [1-14 cyclic peptide (disulphide bridged)]”: the “serum titre to the disulphide bridged cyclic peptide” value in [1] is on record as 1/3200. Also, the “sera binding to 4-42 amyloid peptide” value in the series with 4-42 amyloid peptide was “Minimal binding”. In addition, the “sera binding to pE3-42 amyloid peptide” value in the series with pE3-42 amyloid peptide is recorded as “Minimal binding”.

On to “DAC*FRHDSGYEC*HH-[Cys]- amide (*S—CH2—S* bridged) [1-14 cyclic peptide (thioacetal bridged)]”, for which, in the series on Bapineuzumab (FIGS. 7, 22, 26, 34), the “binding to comparator antibody Bapineuzumab” value was “None of the comparator antibodies tested were able to bind”. For the same molecule, the “binding to comparator antibody BAN2401” value in the series with BAN2401 is reported as “None of the comparator antibodies tested were able to bind”. Moreover, the “binding to comparator antibody ProBioDrug 24_2_3” value in the series with ProBioDrug 24_2_3 was “None of the comparator antibodies tested were able to bind”. For the same molecule, in [2], the “immune response, sera binding to biotinylated cyclised peptide” value is reported as “good immune response”. Besides, the “binding to comparator antibody ProBioDrug 6_1_6” value in the series with ProBioDrug 6_1_6 was “None of the comparator antibodies tested were able to bind”. In addition, the “binding of TAP01 to the cyclic peptide (hairpin epitope)” value in the series with TAP01 (MoG1K) antibody (FIG. 7) was “able to bind”. The “titres of response compared with disulphide bridged peptide” value in series [3] (mice) is listed as “higher titres”. Moreover, the “serum titre to thioacetal bridged cyclic peptide” value is given as 1/24300 in series [3] (mice 3 and 4, FIG. 13); 1/72900 in series [3] (mouse 2, FIG. 13). Moreover, in series [3] (rabbits and mice, FIG. 13), the “immune response after immunisation” value was “immune response was generated”. The “stability compared with disulphide bridged cyclic peptide” value in series [4] is “more chemically stable”. The “binding to comparator antibody Solanezumab” value in the series on Solanezumab is given as “None of the comparator antibodies tested were able to bind”.

For the molecule DAPFRHDSGYEVHH (Residue 3 (E to P)), the “binding to TAP01 antibody” value in the series on TAP01 antibody is “no binding observed”.

On to “PPEFRHDSGYEVHH (Residue 1 and 2 (D to P and A to P))”, for which the “binding to TAP01 antibody” value in the series with TAP01 antibody is listed as “bind in a dose dependant manner”.

Turning to “PPPFRHDSGYEVHH (Residue 1, 2 and 3 (D to P and A to P and E to P))”, in the series with TAP01 antibody, the “binding to TAP01 antibody” value is “bind in a dose dependant manner”.

In general, EC50 refers to the concentration needed to bring the measured effect to its halfway point.
